Like-named read-outs stand apart in the source and are kept apart here.
Legend:
S. venezuelae = S. venezuelae sporulation inhibition disk diffusion assay (whi phenotype, SEM); format: cell-based, Streptomyces venezuelae; conditions: for Sporulation inhibition: disk with 10 μL antibiotic, 48 h, white halo in sub-MIC region
Procedure: A lawn of S. venezuelae spores was plated on MYM agar plates and allowed to dry. For the initial screen, 2 μL of each molecule at 2.5 mM was spotted directly to the agar plate. For known antibiotics or follow-up screening, 10 μL of molecule was added to a drug disk, allowed to dry, and placed on the agar plate. The S. venezuelae plate was incubated at 30°C for 48 hours and photographed. The whi phenotype was identified by eye. Hits were selected based on their ability to induce a whi phenotype at sub-inhibitory concentrations and scored by eye on the size of the induced whi region and the zone of inhibition.
To prepare samples for SEM, the agar plate containing a lawn of S. venezuelae was cut at the edge of the zone of inhibition and fixed with 2% glutaraldehyde in 0.1% sodium cacodylate buffer followed by sputter coating with gold. Images were obtained and processed using a FEI XL30 ESEM. The contrast of the resulting images was adjusted to highlight the appearance or lack of spore formation.

S. aureus = assay: Minimum inhibitory concentration, broth dilution, S. aureus strains; format: cell-based, Staphylococcus aureus; conditions: Staphylococcus aureus
Procedure: The minimum inhibitory concentration (MIC) defines the lowest concentration of a compound required to inhibit the growth. A single colony of the bacteria being tested was grown in 5 mL of liquid growth media. Following overnight growth, the culture was diluted 100-fold into fresh media and incubated at 37°C until the cells reached mid-log phase (OD600 of 0.3 to 0.5). The cells were diluted 10,000-fold into fresh media and the MIC determined for each of the strains by adding 2 μL of the diluted compound to 198 μL of the diluted cells in a clear 96-well plate. The plates were incubated at 37°C overnight and the optical density at 600 nm was measured for each well. All MIC assays were performed in triplicate.

S. aureus gyrase = molecular target: T1, S. aureus gyrase (Staphylococcus aureus, UniProt P0A0K8+P20831); assay: S. aureus gyrase relaxation; format: biochemical; conditions: ATP-independent
T1 construct: purchased Inspiralis Inc. SAS4001 (supercoiling kit); SAGC001 (cleavage assay kit)
Procedure: 1 U of gyrase was incubated with 0.5 μg of supercoiled pBR322 DNA in a 30 μL reaction at 37°C for 60 minutes under the following conditions: 50 mM Tris.HCl (pH 7.5), 5 mM MgCl2,5 mM DTT, 350 mM potassium glutamate, and 0.05 mg/mL albumin. Each reaction was stopped by the addition of 30 μL chloroform/iso-amyl alcohol (24:1) and 20 μl Stop Dye, before being loaded on a 1.0% TAE agarose gel. Gels run at 80 V for 2 hours.

[1] = molecular target: T2, S. aureus gyrase GyrA S84L (Staphylococcus aureus, UniProt P0A0K8+P20831, S84L); assay: Supercoiling inhibition of S. aureus gyrase mutant GyrA S84L; format: biochemical; conditions: S. aureus gyrase
T2 construct: purchased Inspiralis Inc. SAAS84L01
Procedure: 1 U of DNA gyrase was incubated with 0.5 μg of relaxed pBR322 DNA in a 30 μl reaction at 37°C for 30 minutes under the following conditions: 35 mM Tris.HCl (pH 7.5), 24 mM KCl, 4 mM MgCl2, 2 mM DTT, 1.8 mM Spermidine, 1 mM ATP, 6.5% (w/v) glycerol and 0.1 mg/mL BSA. Each reaction was stopped by the addition of 30 μl chloroform/iso-amyl alcohol (24:1) and 20 μl Stop Dye (40% sucrose, 100 mM Tris.HCl (pH 7.5), 10 mM EDTA, 0.5 μg/mL bromophenol blue), before being loaded on a 1.0% TAE (Tris.acetate […], EDTA […]) agarose gel. Gels run at 90 V for 2 hours. Bands were visualized by ethidium staining for 20 minutes and destaining in water for 20 minutes. Gels were scanned using a gel documentation system (GeneGenius, Syngene, Cambridge, UK) and percent inhibition levels obtained with gel scanning software (GeneTools, Syngene, Cambridge,UK).
As for E. coli gyrase except assay conditions were: 40 mM HEPES. KOH (pH 7.6), 10 mM magnesium acetate, 10 mM DTT, 2 mM ATP, 500 mM potassium glutamate, and 0.05 mg/mL BSA. Gels run at 80 V for 3 hours.

[2] = ATCC29213, S. aureus parent strain (ATCC 29213), read-out: MIC
[3] = EN-7-resistant S. aureus mutants

Molecule	Sporulation inhibition (S. venezuelae)	MIC (S. aureus; [2])	MIC (S. aureus; [3])	other results
CN[C@H](CC(C)C)C(=O)N[C@H]1C(=O)N[C@@H](CC(N)=O)C(=O)N[C@H]2C(=O)N[C@H]3C(=O)N[C@H](C(=O)N[C@H](C(=O)O)c4cc(O)cc(O)c4-c4cc3ccc4O)[C@H](O)c3ccc(c(Cl)c3)Oc3cc2cc(c3O[C@@H]2O[C@H](CO)[C@@H](O)[C@H](O)[C@H]2O[C@H]2C[C@](C)(N)[C@H](O)[C@H](C)O2)Oc2ccc(cc2Cl)[C@H]1O [Vancomycin, vancomycin]	−			
O=C(O)c1cn(C2CC2)c2cc(N3CCNCC3)c(F)cc2c1=O [ciprofloxacin, reference compound]	+	0.2 µg/mL	0.2 µg/mL	Aerial hyphae septation by SEM (S. venezuelae; lawn immediately adjacent to the zone of inhibition): do not show any aerial hyphae septation
O=c1ccc2ncc(=O)n3c2n1C[C@H]3CN1CCC(NCc2cc3c(cn2)OCCC3)CC1 [gepotidacin, reference compound]				MIC (S. aureus; ATCC29213, S. aureus ATCC 29213 (wild-type, parent strain), read-out: MIC): 0.5 µM; MIC (S. aureus; EN-7-resistant S. aureus strains with GyrB D437N (mut-7, mut-8)): 32 µM
COc1c(N2C[C@@H]3CCCN[C@@H]3C2)c(F)cc2c(=O)c(C(=O)O)cn(C3CC3)c12 [moxifloxacin, reference compound]				Inhibition of gyrase-induced DNA relaxation (S. aureus gyrase): inhibit; Susceptibility of gyrase mutant GyrA S84L [1]: less susceptible
CO[C@@H]1[C@@H](OC(N)=O)[C@@H](O)[C@H](Oc2ccc3c(O)c(NC(=O)c4ccc(O)c(CC=C(C)C)c4)c(=O)oc3c2C)OC1(C)C [novobiocin, reference compound]	+	0.06 µg/mL	0.06 µg/mL	
bleomycin	+			

— publication PMC6856721, “Discovery of a Novel DNA Gyrase-Targeting Antibiotic through the Chemical Perturbation of Streptomyces venezuelae Sporulation” (Cell Chemical Biology, 2019)
